Test results reported in US8815234B2, “Treatment of human or animal body surface infection” (Insense Limited, priority 2009, dated 2014).

System: Trichophyton rubrum
Assay: In vitro flat bed static diffusion model, kill curves of Trichophyton rubrum
Type: cell-based
Conditions: for effect of peroxidase in disc at lowest concentration compared to the test treatment alone: 1 μg ml^−1 enzyme in disc plus active topical treatment; for potentiation of the effects of the topical treatment by peroxidase within the disc (words): 1, 100 and 500 μg/ml enzyme in disc plus active topical treatment; for relative potency of horseradish peroxidase versus lactoperoxidase in enhancing fungal killing (words): enzyme in disc plus active topical treatment
Description: Test discs were soaked in 50% serum containing 10^7 fungal cells to re-create a high protein environment. They were placed on a gel bed, also containing 50% serum to mimic contact with the nail bed. The discs were dosed with aqueous solutions of either horse radish peroxidase or lactoperoxidase, each set of discs having different dose levels of the enzymes. Control discs were left with no peroxidase of any kind. The experiment was started by applying hydrogen peroxide generating stratified patches (see below) to the surfaces of most of the test discs, and these were left in place for defined periods of time. Some discs were left uncovered as additional experimental controls to determine how well the fungal cells survived when left untreated. At set time-intervals, representative discs were removed for sampling, and the numbers of surviving fungal cells were determined by standard methods.
An in vitro flat bed static diffusion model was utilised, based upon the techniques described in “In vitro diffusion bed, 3-day repeat challenge ‘capacity’ test for antimicrobial wound dressings”, J. Greenman, R. M. S. Thorn, S. Saad, A. Austin International Wound Journal (2006), 3, 322-329.
The test inoculum was prepared by emulsifying mature surface growth biomass of Trichophyton rubrum on potato dextrose agar in Saboraud liquid medium, removing the suspension, vortex mixing, and then allowing large particles to settle out of solution. The resulting suspension was adjusted via spectrophotometry to give a standardised inoculum around 10^7 cfu ml^−1, which is sufficiently dense to enable any fungicidal effects to be detected (>10^3 cfu reduction is seen as indicative of a cidal effect).
A 100 μl volume of the defined inocula was re-suspended in replicate cellulose discs on the surface of a poly-AMPS test bed (the formulation of which is identical to the Layer 1 hydrogel as described in Example 1, but cast as a 25 g gel sheet per 10×10 cm dish), whereby test products can then be applied (FIG. 1). A two layer dressing was tested. The layers were prepared as described in Example 1. Lactoperoxidase or horse radish peroxidase enzymes were prepared by dissolving in analytical water at the required concentration prior to use. It is thought that lactoperoxidase may potentiate any antifungal effects of the novel topical treatment, and for some of the experimental systems cellulose discs were pre-treated with a lactoperoxidase or horseradish peroxidise solution to ascertain differential effects.
The two layer dressings were activated by bringing the two layers together. The hydrogel sheet was placed into contact with the cellulose disc and the dry film then applied to the uppermost surface of the hydrogel sheet. Test beds were incubated at 28° C., and at set time intervals (0, 1, 2, 4 & 24 h); cellulose discs were removed, re-suspended in PBSa, serially diluted and then spiral plated onto Saboraud dextrose agar. After incubation (5 days) the number of dermatophyte survivors at different time points after treatment exposure was determined by colony counting (cfu disc^−1). The results were graphed and analysed using GraphPad Prism (v.4).

Substance	effect of peroxidase in disc at lowest concentration compared to the test treatment alone	potentiation of the effects of the topical treatment by peroxidase within the disc (words)	potentiation of the effects of the topical treatment by peroxidase within the disc (words) (listed as horse radish peroxidise)	relative potency of horseradish peroxidase versus lactoperoxidase in enhancing fungal killing (words) (listed as horse radish peroxidase)	relative potency of horseradish peroxidase versus lactoperoxidase in enhancing fungal killing (words) (listed as horseradish peroxidise)	potentiation of the effects of the topical treatment by peroxidase within the disc (words) (listed as peroxidise)
horseradish peroxidase [Horseradish peroxidise]	has a significant effect	potentiates the effects of the topical treatment in a concentration dependent manner	potentiate the effects of the topical treatment	more potent than lactoperoxidase	more efficacious	–
lactoperoxidase	no significant effect compared to the test treatment alone	potentiate the effects of the topical treatment in a concentration dependant manner	–	–	–	potentiate the effects of the topical treatment
